Test results: US10717716B2, “1,3,4-oxadiazole derivative compounds as histone deacetylase 6 inhibitor, and the pharmaceutical composition comprising the same” (Chong Kun Dang Pharmaceutical Corp., priority 2015, dated 2020)

Tests used:
human recombinant HDAC1 = biological target: T1, human recombinant HDAC1 (Homo sapiens, UniProt Q13547); test: HDAC1 enzyme activity inhibition assay (HDAC Fluorimetric Drug Discovery Kit); assay type: biochemical; settings: human recombinant HDAC1, Fluor de Lys substrate 10 μM, 30° C. 60 minutes
T1 construct: purchased Enzo Life Science BML-SE456
T1 sequence (Q13547 whole entry): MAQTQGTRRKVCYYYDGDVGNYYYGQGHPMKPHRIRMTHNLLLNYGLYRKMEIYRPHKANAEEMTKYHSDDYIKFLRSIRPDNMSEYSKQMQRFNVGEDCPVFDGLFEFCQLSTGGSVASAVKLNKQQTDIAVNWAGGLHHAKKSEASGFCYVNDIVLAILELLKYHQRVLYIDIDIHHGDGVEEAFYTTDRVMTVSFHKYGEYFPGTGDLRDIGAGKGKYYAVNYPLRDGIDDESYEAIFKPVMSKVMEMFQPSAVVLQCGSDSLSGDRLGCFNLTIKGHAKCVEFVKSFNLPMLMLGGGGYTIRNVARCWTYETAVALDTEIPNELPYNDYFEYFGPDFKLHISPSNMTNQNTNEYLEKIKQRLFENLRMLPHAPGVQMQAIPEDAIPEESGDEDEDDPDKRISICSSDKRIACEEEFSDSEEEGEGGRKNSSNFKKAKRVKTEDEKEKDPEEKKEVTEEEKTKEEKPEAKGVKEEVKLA
Procedure, shortened: (§1)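 Fluorimetric deacetylase assay: 5-fold serial compound dilutions, 0.3 μg recombinant human enzyme (HDAC1 or HDAC6, same protocol), 10 μM Fluor de Lys-SIRT1 substrate, 60 min at 30 °C. Signal developed 30 min, measured at 360/460 nm; IC50 values derived.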

human recombinant HDAC6 = biological target: T2, human recombinant HDAC6 (Homo sapiens, UniProt Q9UBN7); test: HDAC6 enzyme activity inhibition assay (HDAC Fluorimetric Drug Discovery Kit); assay type: biochemical
T2 construct: purchased Calbiochem 382180
T2 sequence (Q9UBN7 1-1215): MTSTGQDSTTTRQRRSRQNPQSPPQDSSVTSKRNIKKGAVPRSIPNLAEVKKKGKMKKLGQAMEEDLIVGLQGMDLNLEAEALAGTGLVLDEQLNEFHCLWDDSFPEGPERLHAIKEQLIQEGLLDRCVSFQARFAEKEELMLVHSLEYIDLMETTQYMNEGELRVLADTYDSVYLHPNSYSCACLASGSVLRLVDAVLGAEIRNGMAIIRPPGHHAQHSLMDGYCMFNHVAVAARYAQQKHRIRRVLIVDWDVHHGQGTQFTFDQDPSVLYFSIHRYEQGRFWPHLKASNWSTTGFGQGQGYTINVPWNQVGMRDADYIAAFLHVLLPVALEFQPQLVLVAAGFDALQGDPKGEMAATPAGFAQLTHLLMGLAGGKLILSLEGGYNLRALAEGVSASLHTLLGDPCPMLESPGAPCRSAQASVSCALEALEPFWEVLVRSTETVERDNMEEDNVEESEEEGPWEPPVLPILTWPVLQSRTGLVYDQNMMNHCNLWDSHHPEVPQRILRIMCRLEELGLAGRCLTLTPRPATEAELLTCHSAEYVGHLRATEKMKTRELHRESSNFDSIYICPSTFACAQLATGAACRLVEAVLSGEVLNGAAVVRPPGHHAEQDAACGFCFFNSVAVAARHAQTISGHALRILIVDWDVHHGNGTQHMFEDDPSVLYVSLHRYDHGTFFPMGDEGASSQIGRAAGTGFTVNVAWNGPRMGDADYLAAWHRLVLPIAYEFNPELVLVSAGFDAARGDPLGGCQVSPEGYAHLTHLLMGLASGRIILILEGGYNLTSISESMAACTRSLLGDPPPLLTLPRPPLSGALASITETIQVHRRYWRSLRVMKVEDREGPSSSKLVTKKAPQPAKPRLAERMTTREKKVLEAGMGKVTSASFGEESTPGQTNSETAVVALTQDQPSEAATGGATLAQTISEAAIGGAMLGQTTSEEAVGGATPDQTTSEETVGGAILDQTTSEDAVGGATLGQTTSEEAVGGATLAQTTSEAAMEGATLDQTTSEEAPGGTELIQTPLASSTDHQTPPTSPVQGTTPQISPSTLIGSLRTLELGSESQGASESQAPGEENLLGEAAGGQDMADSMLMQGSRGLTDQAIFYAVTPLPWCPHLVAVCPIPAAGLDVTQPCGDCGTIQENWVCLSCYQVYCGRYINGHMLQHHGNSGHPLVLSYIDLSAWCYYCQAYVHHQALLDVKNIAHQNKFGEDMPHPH
Procedure, shortened: as §1

**Q.** With `CN1CCN(C(=O)N(Cc2ccc(-c3nnc(C(F)F)o3)cc2F)c2ccc3cnn(C)c3c2)CC1` [Compound 21654, N-(4-(5-(difluoromethyl)-1,3,4-oxadiazol-2-yl)-2-fluorobenzyl)-4-methyl-N-(1-methyl-1H-indazol-6-yl)piperazine-1-carboxamide] as the compound, how does the IC50 (human recombinant HDAC1) read?
**A.** Its IC50 is 18.8 µM.

**Q.** What about the “HDAC6 selectivity (fold)” value (human recombinant HDAC6; HDAC6 over HDAC1) of the same compound?
**A.** Its value is 1518 fold.

**Q.** What about the IC50 (human recombinant HDAC6; human recombinant HDAC6, same protocol as HDAC1, read-out: HDAC6) of the same compound?
**A.** Its IC50 is 0.012 µM.
